The numbers were not newly measured in US20160133992A1, “DRYING OF ELECTROLYTE MIXTURES CONTAINING ACIDS WITH MOLECULAR SIEVES” (BASF SE, priority 2013, published 2016), which cites them from elsewhere.

What is called pKa is the pH at which an ionisable group is half protonated.

Conditions in the first data set: not given
`CC(CCCO)S(=O)(=O)O` (stereo not shown) [1-Methyl-4-hydroxy-1-butane sulfonic acid]: the pKa result is “below 4”.
Turning to `CCCCCCCCC(CCCO)S(=O)(=O)O` (stereo not shown) [1-Octyl-4-hydroxy-1-butane sulfonic acid], the pKa result was “below 4”.
With `CCCC(CCO)S(=O)(=O)O` (stereo not shown) [1-Propyl-gamma-hydroxy propane sulfonic acid], the pKa result is on record as “below 4”.
On to `CCCCC(CCO)S(=O)(=O)O` (stereo not shown) [1-Butyl-gamma-hydroxy propane sulfonic acid], for which the pKa entry is “below 4”.
Regarding `CCC(CCCO)S(=O)(=O)O` (stereo not shown) [1-Ethyl-4-hydroxy-1-butane sulfonic acid], the pKa entry was “below 4”.
As to `CCC(CCO)S(=O)(=O)O` (stereo not shown) [1-Ethyl-gamma-hydroxy propane sulfonic acid], the pKa result is “below 4”.
In the case of `O=S(=O)(O)CCCCCO` [5-hydroxy-1-pentane sulfonic acid], the pKa result is reported as “below 4”.
Turning to `O=S(=O)(O)CCCCO` [4-hydroxy-1-butane sulfonic acid], the pKa is on record as −1,7.
In the case of `CC(CCO)S(=O)(=O)O` (stereo not shown) [1-Methyl-gamma-hydroxy propane sulfonic acid], the pKa entry was “below 4”.

Still in this data set, the particulars now being: listed as compound of formula (b).
Regarding `O=S(=O)(O)CCCO` [gamma-hydroxy propane sulfonic acid], the pKa is −1.49.
